Values quoted from earlier work as cited in paper PMC8162882 (Chemical Science, 2020).

Settings: as toxic as the natural product

Substance | Toxicity relative to the natural product (6′-OH replaced by H)
amanin | 25–50%
amaninamide | 25–50%
